According to US20240279191A1, “SMALL MOLECULE INHIBITORS OF TEAD-YAP” (The General Hospital Corporation, priority 2021, published 2024):

Experiments:
[1] = biological target: association of YAP with endogenous TEAD1 and pan-TEAD (Homo sapiens, UniProt P28347); assay: YAP co-immunoprecipitation (Co-IP) assay in H226 cells; assay type: cell-based; conditions: H226, 24 h, dose-dependent, FIG. 5A
Experimental: H226 cells were treated with DMSO or TM2 for 24 h. The cells were then washed and harvested by cold DPBS. The cell pellets were isolated by centrifugation (500×g, 10 min) and lysed by lysis buffer (50 mM Tris-HCl pH 7.5, 10% Glycerol, 1% NP-40, 300 mM NaCl, 150 mM KCl, 5 mM EDTA, phosphatase inhibitor cocktail, complete EDTA-free protease inhibitors cocktail) on ice. After dilution with 50 mM Tris-HCl pH 7.5, 10% Glycerol, 1% NP-40, 5 mM EDTA, the protein samples were incubated with mouse anti-YAP antibody (sc-101199, Santa Cruz) overnight at 4° C. and immunoprecipitated with prewashed protein A/G beads (P5030-1, UBPBio) for another 4 h at 4° C. The bound proteins were washed with 0.1% PBST for three times and eluted with 1×SDS loading buffer and analyzed with SDS-PAGE. Anti-TEAD1 (1:1000, 12292S, Cell Signaling), anti-pan-TEAD (1:1000, 13295, Cell Signaling) or anti-YAP (1:1000, 140745, Cell Signaling) antibody were used to detect TEAD1, pan-TEAD or YAP, respectively. Secondary antibody was anti-rabbit (1:5000, 7074S, Cell Signaling).

[2] = tested on: NCI-H2052 cells; assay: Cell proliferation assay (MTT), NCI-H2052; conditions: Homo sapiens, NCI-H2052, read-out: IC50 NCI-H2052 cell proliferation
[3] = tested on: H226; assay: H226 growth inhibition (SAR tables); assay type: cell-based; conditions: Homo sapiens, NCI-H226
[4] = tested on: NCI-H28 cells; assay: Cell proliferation assay (MTT), NCI-H28; conditions: Homo sapiens, NCI-H28, read-out: IC50 NCI-H28 cell proliferation
[5] = tested on: PDL1 expression; assay: PDL1 expression in cancer cell lines; assay type: cell-based
[6] = biological target: TEAD2 (Homo sapiens, UniProt Q15562); assay: Inhibition of TEAD2 auto-palmitoylation in vitro; conditions: FIG. 1; 0.05 and 0.5 μM for 30 mins
Chain of TEAD2 (Q15562 whole entry): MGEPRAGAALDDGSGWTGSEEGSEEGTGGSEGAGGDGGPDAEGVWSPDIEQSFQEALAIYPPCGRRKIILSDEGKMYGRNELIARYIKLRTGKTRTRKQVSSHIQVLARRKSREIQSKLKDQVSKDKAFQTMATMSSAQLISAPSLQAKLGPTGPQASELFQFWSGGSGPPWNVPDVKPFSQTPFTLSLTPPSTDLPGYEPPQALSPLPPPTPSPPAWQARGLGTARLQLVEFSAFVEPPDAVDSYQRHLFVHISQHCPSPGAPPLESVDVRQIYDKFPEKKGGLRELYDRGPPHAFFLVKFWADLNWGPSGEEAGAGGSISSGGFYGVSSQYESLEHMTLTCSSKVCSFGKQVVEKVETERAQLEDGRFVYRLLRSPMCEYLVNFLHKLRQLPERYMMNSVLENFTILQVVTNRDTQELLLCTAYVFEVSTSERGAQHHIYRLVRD

[7] = Aqueous solubility (Aq Sol); assay type: physicochemical
[8] = tested on: Mouse hepatic progenitor organoids; assay: Organoids viability; assay type: cell-based; conditions: 40 nM
Experimental: Mouse hepatic progenitor organoids (70932, […] Tech) were seeded in 96 well plate using 20 ul Matrigel (Corning, #354230) and cultured in HepatiCult™ Organoid Growth Medium (06031, […] Tech) with or without TM2. Medium was replaced after every 48 h with fresh compound. Organoid viability was measured by PrestoBlue™ HS Cell Viability Reagent (ThermoFisher, #P50200) following the manufacturer's protocol.

[9] = biological target: DHODH(H) (Homo sapiens, UniProt Q02127); assay: DHODH(H) (Table F1); conditions: three values in one cell
Chain of DHODH(H) (Q02127 whole entry): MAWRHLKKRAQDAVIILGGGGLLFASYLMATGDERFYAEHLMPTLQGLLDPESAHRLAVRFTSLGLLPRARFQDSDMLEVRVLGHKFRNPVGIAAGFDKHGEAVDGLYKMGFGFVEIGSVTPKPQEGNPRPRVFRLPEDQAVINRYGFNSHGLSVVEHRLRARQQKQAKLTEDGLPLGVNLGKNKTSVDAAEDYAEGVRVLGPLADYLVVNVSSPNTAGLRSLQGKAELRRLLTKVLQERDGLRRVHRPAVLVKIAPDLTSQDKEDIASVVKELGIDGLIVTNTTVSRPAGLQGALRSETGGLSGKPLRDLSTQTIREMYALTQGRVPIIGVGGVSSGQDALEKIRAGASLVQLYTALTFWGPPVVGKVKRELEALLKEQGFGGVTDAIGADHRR

[10] = tested on: Mouse hepatic progenitor organoids; assay: Immunofluorescence staining of Ki67 in organoids; assay type: cell-based; conditions: 40 nM, 3D culture
Experimental: Organoids were plated in 8 well chamber slide and fixed in 4% paraformaldehyde at 4° C. for 1h. After permeabilization in 0.5% PBST, organoids were blocked with 2% BSA for 2 h and incubated with primary antibody overnight at […]. Imaging was performed on Nikon A1RHD25 confocal microscope.

[11] = tested on: TEAD-YAP target genes (CTGF, Cyr61, ANKRD1); assay: Quantitative RT-PCR of TEAD-YAP target genes in H226 cells; assay type: cell-based, Human
Experimental: […] The high-capacity cDNA reverse transcription kit (4368814, Life Technologies) was employed to obtain cDNA. Target genes expression (Cyr61, CTGF and ANKRD1) was measured with PowerUp SYB Green Master Mix kit (A25777, Life Technologies). β-actin was used as reference gene. The primers are shown below:

[12] = tested on: endogenous TEAD1-4 (pan-TEAD); assay: Inhibition of endogenous pan-TEAD palmitoylation in HEK293A cells; assay type: cell-based
Experimental: HEK293A cells with or without TEAD overexpression were pretreated with DMSO or TM2 in medium with 10% dialyzed fetal bovine serum (DFBS) for 8 h and labeled by Alkynyl Palmitic acid (1165, Click Chemistry Tools) for another 16 h. The cells were then washed and harvested by cold DPBS (14190250, Life Technologies). The cell pellets were isolated by centrifugation (500×g, 10 min) and lysed by TEA lysis buffer (50 mM TEA-HCl, pH 7.4, 150 mM NaCl, 1% Triton X-100, 0.2% SDS, 1×Protease inhibitor-EDTA free cocktail (05892791001, Roche), phosphatase inhibitor cocktail (P0044, Sigma-Aldrich)) on ice for 30 mins. The protein concentration was determined using Bio-Rad assay and adjusted to 1 mg/mL. 100 μL of protein sample mixture was treated with 10 μL of freshly prepared “click” mixture containing 1 mM TBTA, 10 mM TCEP, 10 mM CuSO4, 1 mM TBTA Biotin-Azide and incubated for 1 h at room temperature. The proteins were precipitated by chloroform/methanol/H20 mixture and redissolved with 2% SDS in 0.1% PBST. The solution was diluted with 0.1% PBST and incubated with prewashed streptavidin agarose beads (69203-3, E M D MILLIPORE). After rotation at room temperature for 2 h, the beads were then pelleted by centrifugation (500×g, 3 min) and washed with 0.2% SDS in PBS (3×1 mL). The bound proteins were eluted with a buffer containing 10 mM EDTA pH 8.2 and 95% formamide and analyzed with SDS-PAGE. […]

[13] = Metabolic stability MLM; conditions: % parent remained per Table G2
[14] = tested on: HCC95; assay: HCC95 growth inhibition (SAR tables); assay type: cell-based

Chain of association of YAP with endogenous TEAD1 and pan-TEAD (P28347 whole entry): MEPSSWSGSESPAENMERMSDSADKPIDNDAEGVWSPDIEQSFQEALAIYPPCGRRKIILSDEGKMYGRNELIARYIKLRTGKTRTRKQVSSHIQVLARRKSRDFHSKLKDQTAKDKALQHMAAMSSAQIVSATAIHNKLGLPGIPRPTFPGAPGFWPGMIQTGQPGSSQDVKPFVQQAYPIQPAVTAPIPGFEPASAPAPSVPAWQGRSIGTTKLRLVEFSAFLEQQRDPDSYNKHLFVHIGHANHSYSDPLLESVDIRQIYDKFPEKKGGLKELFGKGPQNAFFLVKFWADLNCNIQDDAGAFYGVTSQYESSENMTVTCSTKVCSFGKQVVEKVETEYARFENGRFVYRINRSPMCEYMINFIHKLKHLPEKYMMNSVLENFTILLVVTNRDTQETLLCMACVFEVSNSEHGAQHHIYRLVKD

- association of YAP with endogenous TEAD1 and pan-TEAD (in words) [1]: dramatically blocked
- IC50 [2]: 157 nM
- GI50 [3]: 73 nM
- IC50 [4]: > 5000 nM
- inhibition of TEAD2 auto-palmitoylation (in words) [6]: most potent compound
- Aq Sol [7]: 2.3 µM
- DHODH(H):(GI50 μM/1,10 μM) [9]: 5/6/15
- Met stab MLM, 15 min ([13]; 15 min): 36%
- Met stab MLM, 60 min ([13]; 60 min): 4%
SMILES: O=C(Nc1ccccc1)N1CCN(C(=O)c2cccc(OCCC3CCCCC3)c2)CC1 [TM2, 4-(3-(2-cyclohexylethoxy)benzoyl)-N-phenylpiperazine-1-carboxamide]
- PDL1 expression in cancer cell lines (in words) [5]: inhibits PDL1 expression
- disruption of organoids growth [8]: more than 85%
- Ki67 positive cells in organoids (in words) [10]: significantly diminished
- expression level of CTGF and ANKDR1 (in words) ([11]; H226, 24 and 48 h): significantly suppressed
- expression of Cyr61 (in words) ([11]; H226, 48 h): strong response
- Pan-TEAD palmitoylation at 100 nM (in words) ([12]; 100 nM): diminished
- endogenous TEAD1-4 (pan-TEAD) palmitoylation (in words) ([12]; HEK293A, 24 h, FIG. 2D): significantly inhibits
- HCC95: value at 1 μM ([14]; 1 μM): 37
- HCC95: value at 10 μM ([14]; 10 μM): 65
